Results on 43 molecules are retold here after patent publication US9790169B2, “IDO inhibitors” (BRISTOL-MYERS SQUIBB COMPANY, priority 2015, dated 2017).

Molecules are shown by their SMILES. Bounds are passed on as bounds.

This test concerns the target human IDO1 (Homo sapiens, UniProt P14902). Kind of test: Assessment of human IDO-1 inhibitory activity in HEK cells (human IDO1/HEK293 cells, kynurenine read-out with Ehrlich reagent, absorbance 490 nm). Type of test: cell-based. More on the design: expressed in transfected cells. To be noted: HEK Human IDO-1 cellular assay. An outline of the steps: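 Kynurenine output from stably IDO1-transfected HEK293 cells (10,000/well, phenol red-free RPMI, 10% FBS) after 20 h compound exposure at 37 °C. The reaction was stopped with 0.2% TCA and heated 30 min at 50 °C, then the supernatant was mixed with Ehrlich reagent and read at 490 nm. IC50 was set against DMSO and a 500 nM reference standard as 0 and 100% inhibition.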

Sequence of human IDO1 (P14902 whole entry): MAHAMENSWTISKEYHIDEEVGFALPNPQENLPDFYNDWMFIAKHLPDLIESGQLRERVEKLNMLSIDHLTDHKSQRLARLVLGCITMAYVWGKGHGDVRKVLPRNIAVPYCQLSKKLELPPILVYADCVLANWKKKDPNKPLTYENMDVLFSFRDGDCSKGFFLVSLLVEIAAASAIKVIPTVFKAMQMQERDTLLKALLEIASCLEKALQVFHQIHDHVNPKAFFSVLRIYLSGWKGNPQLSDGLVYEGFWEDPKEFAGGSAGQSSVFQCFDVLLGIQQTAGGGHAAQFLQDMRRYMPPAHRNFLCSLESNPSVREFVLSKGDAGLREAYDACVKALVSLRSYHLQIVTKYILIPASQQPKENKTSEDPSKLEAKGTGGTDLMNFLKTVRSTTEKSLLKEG

As for `CCC(CC(=O)O)c1cc(F)c(N(CC(C)C)CC(C)C)c(Nc2ccc(Cl)c(OCC(F)(F)F)c2)c1` (single isomer, unassigned) [Example 118, 3-(3-((4-chloro-3-(2,2,2-trifluoroethoxy)phenyl)-amino)-4-(diisobutylamino)-5-fluorophenyl)pentanoic acid], the IC50 is < 50 nM. The figure for `CCC(CC(=O)O)c1cc(F)c(N(CC(C)C)CC(C)C)c(NC(=O)c2ccc(Cl)cc2)c1` (single isomer, unassigned) [Example 127, 3-(3-(4-Chlorobenzamido)-4-(diisobutylamino)-5-fluorophenyl)pentanoic acid] is > 50 nM.

Regarding `CC(C)CN(CC(C)C)c1c(F)cc(C(CC(=O)O)c2ccccc2)cc1Nc1ccc(Cl)cc1` (single isomer, unassigned) [Example 129, 3-(3-((4-Chlorophenyl)amino)-4-(diisobutylamino)-5-fluorophenyl)-3-phenylpropanoic acid], the IC50 was < 50 nM. The figure for `Cc1nc2ccc(Nc3cc(C(CC(=O)O)c4ccccc4)cc(F)c3N(CC(C)C)CC(C)C)cc2s1` (single isomer, unassigned) [Example 130, 3-(4-(Diisobutylamino)-3-fluoro-5-((2-methylbenzo[d]thiazol-6-yl)amino)phenyl)-3-phenylpropanoic acid] is > 50 nM; for `CCOc1ncc(Nc2cc(C(C)CC(=O)O)ccc2N(CC(C)(C)O)C2CCOCC2)cn1` (single isomer, unassigned) [Example 191, 3-(3-((2-Ethoxypyrimidin-5-yl)amino)-4-((2-hydroxy-2-methylpropyl)(tetrahydro-2H-pyran-4-yl)amino)phenyl)butanoic acid] it is > 50 nM. With `COc1ncc(Nc2cc(C(C)CC(=O)O)ccc2N(CC(C)(C)O)C2CCOCC2)cn1` (single isomer, unassigned) [Example 192, 3-(4-((2-hydroxy-2-methylpropyl)(tetrahydro-2H-pyran-4-yl)amino)-3-((2-methoxypyrimidin-5-yl)amino)phenyl)butanoic acid] the figure was > 50 nM; with `CC(CC(=O)O)c1ccc(N(CC(C)(C)O)C2CCOCC2)c(Nc2ccc(C#N)cc2)c1` (single isomer, unassigned) [Example 194, 3-(3-((4-cyanophenyl)amino)-4-((2-hydroxy-2-methylpropyl)(tetrahydro-2H-pyran-4-yl)amino)phenyl)butanoic acid], < 50 nM. For the molecule `CC(CC(=O)O)c1ccc(N(CC(C)(C)O)C2CCOCC2)c(Nc2ccc(Cl)cc2)c1` (single isomer, unassigned) [Example 195, 3-(3-((4-Chlorophenyl)amino)-4-((2-hydroxy-2-methylpropyl)(tetrahydro-2H-pyran-4-yl)amino)phenyl)butanoic acid], the IC50 was < 5 nM. As for `CC(CC(=O)O)c1ccc(N(CC(C)(C)O)C2CCOCC2)c(Nc2ccc(C#N)cc2)c1` (single isomer, unassigned) [Example 196, 3-(3-((4-Cyanophenyl)amino)-4-((2-hydroxy-2-methylpropyl)(tetrahydro-2H-pyran-4-yl)amino)phenyl)butanoic acid], the IC50 was < 5 nM. With `CCOc1ncc(Nc2cc([C@@H](CC)CC(=O)O)ccc2N(CC(C)(C)O)C2CCOCC2)cn1` (single isomer, unassigned) [Example 197] the figure was > 50 nM; with `CC[C@@H](CC(=O)O)c1ccc(N(CC(C)(C)O)C2CCOCC2)c(Nc2ccc(Cl)cc2)c1` (single isomer, unassigned) [Example 198], < 5 nM. The figure for `CC[C@@H](CC(=O)O)c1ccc(N(CC(C)(C)O)C2CCOCC2)c(Nc2ccc3c(c2)OC(F)(F)O3)c1` (single isomer, unassigned) [Example 199] is < 5 nM; for `CC[C@@H](CC(=O)O)c1ccc(N(CC(C)(C)O)C2CCOCC2)c(Nc2ccc(Cl)c(OCC(F)(F)F)c2)c1` (single isomer, unassigned) [Example 200] it is < 50 nM; for `CCOc1ccc(Nc2cc([C@@H](CC)CC(=O)O)ccc2N(CC(C)(C)O)C2CCOCC2)c(F)c1` (single isomer, unassigned) [Example 201] it is < 50 nM. With `CCOc1ncc(Nc2cc([C@H](CC)CC(=O)O)ccc2N(CC(C)(C)O)C2CCOCC2)cn1` (single isomer, unassigned) [Example 202] the figure was > 50 nM; with `CC[C@H](CC(=O)O)c1ccc(N(CC(C)(C)O)C2CCOCC2)c(Nc2ccc(Cl)cc2)c1` (single isomer, unassigned) [Example 203], < 5 nM. For `CC[C@H](CC(=O)O)c1ccc(N(CC(C)(C)O)C2CCOCC2)c(Nc2ccc3c(c2)OC(F)(F)O3)c1` (single isomer, unassigned) [Example 204], the IC50 is < 5 nM. On to `CC[C@H](CC(=O)O)c1ccc(N(CC(C)(C)O)C2CCOCC2)c(Nc2ccc(Cl)c(OCC(F)(F)F)c2)c1` (single isomer, unassigned) [Example 205], for which the IC50 was < 50 nM. Take `CCOc1ccc(Nc2cc([C@H](CC)CC(=O)O)ccc2N(CC(C)(C)O)C2CCOCC2)c(F)c1` (single isomer, unassigned) [Example 206]: the half-maximal inhibitory concentration (IC50) was < 50 nM. The figure for `CC[C@@H](CC(=O)O)c1ccc(N(CC(C)(C)O)C2CCOCC2)c(NC(=O)Nc2ccc(C)cc2)c1` (single isomer, unassigned) [Example 207] is > 50 nM; for `CC[C@H](CC(=O)O)c1ccc(N(CC(C)(C)O)C2CCOCC2)c(NC(=O)Nc2ccc(C)cc2)c1` (single isomer, unassigned) [Example 208] it is > 50 nM.

As to `CC[C@H](CC(=O)O)c1ccc(N(CC(C)C)C2CCS(=O)(=O)CC2)c(NC(=O)Nc2ccc(C)cc2)c1` (single isomer, unassigned) [Example 209], the IC50 is > 50 nM.

Regarding `CC[C@@H](CC(=O)O)c1ccc(N(CC(C)C)C2CCS(=O)(=O)CC2)c(NC(=O)Nc2ccc(C)cc2)c1` (single isomer, unassigned) [Example 210], the 50% inhibitory concentration (IC50) was > 50 nM. The figure for `CC[C@H](CC(=O)O)c1ccc(N(CC(C)C)C2CCS(=O)(=O)CC2)c(NC(=O)Nc2ccc(OC)cc2F)c1` (single isomer, unassigned) [Example 211] is > 50 nM; for `CCOc1ccc(NC(=O)Nc2cc([C@H](CC)CC(=O)O)ccc2N(CC(C)C)C2CCS(=O)(=O)CC2)cc1` (single isomer, unassigned) [Example 212] it is > 50 nM; for `CC[C@H](CC(=O)O)c1ccc(N(CC(C)C)C2CCS(=O)(=O)CC2)c(NC(=O)Nc2cc(C)on2)c1` (single isomer, unassigned) [Example 213] it is > 50 nM. Consider `CC[C@H](CC(=O)O)c1ccc(N(CC(C)C)C2CCS(=O)(=O)CC2)c(Nc2ccc3c(c2)OC(F)(F)O3)c1` (single isomer, unassigned) [Example 215], for which the half-inhibitory concentration (IC50) was < 5 nM. The figure for `CC[C@@H](CC(=O)O)c1ccc(N(CC(C)C)C2CCS(=O)(=O)CC2)c(NC(=O)Nc2ccc(OC)cc2F)c1` (single isomer, unassigned) [Example 216] is > 50 nM.

Regarding `CCOc1ccc(NC(=O)Nc2cc([C@@H](CC)CC(=O)O)ccc2N(CC(C)C)C2CCS(=O)(=O)CC2)cc1` (single isomer, unassigned) [Example 217], the 50% inhibitory concentration (IC50) was > 50 nM. The figure for `CC[C@@H](CC(=O)O)c1ccc(N(CC(C)C)C2CCS(=O)(=O)CC2)c(Nc2ccc3sc(C)nc3c2)c1` (single isomer, unassigned) [Example 219] is < 5 nM; for `CC[C@@H](CC(=O)O)c1ccc(N(CC(C)C)C2CCS(=O)(=O)CC2)c(Nc2ccc3c(c2)OC(F)(F)O3)c1` (single isomer, unassigned) [Example 220] it is < 5 nM; for `CC[C@@H](CC(=O)O)c1ccc(N(CC(C)(C)O)C2CCCCC2)c(Nc2ccc(F)cc2)c1` (single isomer, unassigned) [Example 225] it is < 5 nM. With `CC[C@@H](CC(=O)O)c1ccc(N(CC(C)(C)O)C2CCCCC2)c(Nc2ccc(OC(F)F)cc2)c1` (single isomer, unassigned) [Example 226] the figure was < 5 nM; with `CC[C@@H](CC(=O)O)c1ccc(N(CC(C)(C)O)C2CCCCC2)c(Nc2ccc(C#N)cc2)c1` (single isomer, unassigned) [Example 227], < 5 nM; with `CCOc1ncc(Nc2cc([C@@H](CC)CC(=O)O)ccc2N(CC(C)(C)O)C2CCCCC2)cn1` (single isomer, unassigned) [Example 229], < 50 nM. For `CCc1cnc(Nc2cc([C@@H](CC)CC(=O)O)ccc2N(CC(C)(C)O)C2CCCCC2)nc1` (single isomer, unassigned) [Example 230], the concentration for half-maximal inhibition (IC50) is < 50 nM.

In the case of `CC[C@@H](CC(=O)O)c1ccc(N(CC(C)(C)O)C2CCCCC2)c(Nc2ccc(Cl)cc2)c1` (single isomer, unassigned) [Example 231], the IC50 was < 5 nM. The figure for `CC[C@H](CC(=O)O)c1ccc(N(CC(C)(C)O)C2CCCCC2)c(Nc2ccc(F)cc2)c1` (single isomer, unassigned) [Example 236] is < 50 nM; for `CC[C@H](CC(=O)O)c1ccc(N(CC(C)(C)O)C2CCCCC2)c(Nc2ccc(OC(F)F)cc2)c1` (single isomer, unassigned) [Example 237] it is < 5 nM.

Take `CC[C@H](CC(=O)O)c1ccc(N(CC(C)(C)O)C2CCCCC2)c(Nc2ccc(C#N)cc2)c1` (single isomer, unassigned) [Example 238]: the IC50 is < 5 nM. The figure for `CCc1ccc(Nc2cc([C@H](CC)CC(=O)O)ccc2N(CC(C)(C)O)C2CCCCC2)cc1` (single isomer, unassigned) [Example 239] is < 50 nM; for `CCOc1ncc(Nc2cc([C@H](CC)CC(=O)O)ccc2N(CC(C)(C)O)C2CCCCC2)cn1` (single isomer, unassigned) [Example 240] it is < 50 nM; for `CCc1cnc(Nc2cc([C@H](CC)CC(=O)O)ccc2N(CC(C)(C)O)C2CCCCC2)nc1` (single isomer, unassigned) [Example 241] it is < 50 nM.
